Laboratory results taken from US10202378B2, “Therapeutic compounds and uses thereof” (GENENTECH, INC., priority 2015, dated 2019).
pIC50: −log10 of the molar value.

Key:
TAF1-BD1 = TAF1-BD1 (Homo sapiens, UniProt P21675); test: TAF1-BD1 TR-FRET Binding Assay; settings: read-out: TAF1-BD1 HTRF IC50
Description: IC50 Measurements for Inhibitors Using TAF1-BD1 TR-FRET Binding Assay
His/Flag epitope tagged TAF1-BD11381-1497 was cloned, expressed, and purified to homogeneity. TAF1-BD binding and inhibition was assessed by monitoring the engagement of a biotinylated small molecule compound 1000 with the target using the TR-FRET assay technology (Perkin-Elmer). Specifically, in a 384 well ProxiPlate, TAF1-BDI (0.08 uM final) in 50 mM HEPES (pH 7.5; final), 50 mM NaCl (final), 1 mM TCEP (final), 0.1 mg/mL BSA (final), and 0.069 mM Brij-35 (final) was added either in the presence of DMSO (final 0.2% DMSO) or compound dilution series in DMSO. After a 10 minute incubation at room temperature, biotin-ligand (0.08 uM final) was added. After 10 minutes incubation at room temperature, a mixture Eu-W1024 Anti-6×His antibody (Perkin Elmer ADO 110) and SureLight™ Streptavidin-Allophycocyanin (SA-APC, Perkin Elmer CR130-100) were added to final concentrations of 0.2 nM antibody and 0.05 uM SA-APC, respectively. After forty minutes of equilibration at room temperature, the plates were read on an Envision instrument and IC50s calculated using a four parameter logistic model (XLFIT).

TAF1-BD2 = TAF1-BD2 (Homo sapiens, UniProt P21675); test: TAF1-BD2 TR-FRET Binding Assay; settings: read-out: TAF1-BD2 HTRF IC50
Description: IC50 Measurements for Inhibitors Using TAF1-BD2 TR-FRET Binding Assay
His/Flag epitope tagged TAF1-BD21504-1635 was cloned, expressed, and purified to homogeneity. TAF1-BD2 binding and inhibition was assessed by monitoring the engagement of a biotinylated small molecule compound 1000 with the target using the TR-FRET assay technology (Perkin-Elmer). Specifically, in a 384 well ProxiPlate, TAF1-BD2 (0.012 uM final) in 50 mM HEPES (pH 7.5; final), 50 mM NaCl (final), 1 mM TCEP (final), 0.1 mg/mL BSA (final), and 0.069 mM Brij-35 (final) was added either in the presence of DMSO (final 0.2% DMSO) or compound dilution series in DMSO. After a 10 minute incubation at room temperature, biotin-ligand (0.04 uM final) was added. After 10 minutes incubation at room temperature, a mixture Eu-W1024 Anti-6×His antibody (Perkin Elmer AD0110) and SureLight™ Streptavidin-Allophycocyanin (SA-APC, Perkin Elmer CR130-100) were added to a final concentration of 0.2 nM antibody and 0.025 uM SA-APC, respectively. After forty minutes of equilibration at room temperature, the plates were read on an Envision instrument and IC50s calculated using a four parameter logistic model (XLFIT).

For “3-(hydroxymethyl)-4-(3-hydroxy-3-methyl-but-1-ynyl)-2,6-dimethyl-1H-pyrrolo[2,3-c]pyridin-7-one [Example 201]”, the pIC50 (TAF1-BD1) was 5.22 and the pIC50 (TAF1-BD2) was 5.65.
`CCOC(=O)c1c(C)[nH]c2c(=O)n(C)cc(C#CC(O)(c3ccccc3)C(F)(F)F)c12` (single isomer, unassigned) [Example 91a, ethyl 2,6-dimethyl-7-oxo-4-(4,4,4-trifluoro-3-hydroxy-3-phenyl-but-1-ynyl)-1H-pyrrolo[2,3-c]pyridine-3-carboxylate] gave a pIC50 (TAF1-BD1) of 6.13 and a pIC50 (TAF1-BD2) of 6.69.
`CCOC(=O)c1c(C)[nH]c2c(=O)n(C)cc(C#CC(O)(c3ccccc3)C(F)(F)F)c12` (single isomer, unassigned) [Example 91b, ethyl 2,6-dimethyl-7-oxo-4-(4,4,4-trifluoro-3-hydroxy-3-phenyl-but-1-ynyl)-1H-pyrrolo[2,3-c]pyridine-3-carboxylate] was tested, and the pIC50 (TAF1-BD1) was 6.74 and the pIC50 (TAF1-BD2) was 7.37.
Compound `CCOC(=O)c1c(C)[nH]c2c(=O)n(C)cc(C#CC(C)(O)C3CC3)c12` (single isomer, unassigned) [Example 92a, ethyl 4-(3-cyclopropyl-3-hydroxy-but-1-ynyl)-2,6-dimethyl-7-oxo-1H-pyrrolo[2,3-c]pyridine-3-carboxylate] has a pIC50 (TAF1-BD1) of 6.81 and a pIC50 (TAF1-BD2) of 7.48.
With `CCOC(=O)c1c(C)[nH]c2c(=O)n(C)cc(C#CC(C)(O)C3CC3)c12` (single isomer, unassigned) [Example 92b, ethyl 4-(3-cyclopropyl-3-hydroxy-but-1-ynyl)-2,6-dimethyl-7-oxo-1H-pyrrolo[2,3-c]pyridine-3-carboxylate] the pIC50 (TAF1-BD1) was 5.96 and the pIC50 (TAF1-BD2) was 6.64.
With `CCOC(=O)c1c(C)[nH]c2c(=O)n(C)cc(C#CC(O)(c3ccccc3)C(F)F)c12` (single isomer, unassigned) [Example 93a, ethyl 4-(4,4-difluoro-3-hydroxy-3-phenyl-but-1-ynyl)-2,6-dimethyl-7-oxo-1H-pyrrolo[2,3-c]pyridine-3-carboxylate] the pIC50 (TAF1-BD1) was 6.22 and the pIC50 (TAF1-BD2) was 7.18.
`CCOC(=O)c1c(C)[nH]c2c(=O)n(C)cc(C#CC(O)(c3ccccc3)C(F)F)c12` (single isomer, unassigned) [Example 93b, ethyl 4-(4,4-difluoro-3-hydroxy-3-phenyl-but-1-ynyl)-2,6-dimethyl-7-oxo-1H-pyrrolo[2,3-c]pyridine-3-carboxylate] was tested, and the pIC50 (TAF1-BD1) was 6.75 and the pIC50 (TAF1-BD2) was 7.67.
`Cc1[nH]c2c(=O)n(C)cc(C#CC(C)(O)C3CC3)c2c1-c1nnc(C2CCOC2)o1` (single isomer, unassigned) [Example 96a, 4-(3-cyclopropyl-3-hydroxy-but-1-ynyl)-2,6-dimethyl-3-(5-tetrahydrofuran-3-yl-1,3,4-oxadiazol-2-yl)-1H-pyrrolo[2,3-c]pyridin-7-one] showed a pIC50 (TAF1-BD1) of 6.74 and a pIC50 (TAF1-BD2) of 7.39.
`Cc1[nH]c2c(=O)n(C)cc(C#CC(C)(O)C3CC3)c2c1-c1nnc(C2CCOC2)o1` (single isomer, unassigned) [Example 96b, 4-(3-cyclopropyl-3-hydroxy-but-1-ynyl)-2,6-dimethyl-3-(5-tetrahydrofuran-3-yl-1,3,4-oxadiazol-2-yl)-1H-pyrrolo[2,3-c]pyridin-7-one] showed a pIC50 (TAF1-BD1) of 5.94 and a pIC50 (TAF1-BD2) of 6.59.
`Cc1[nH]c2c(=O)n(C)cc(C#CC(C)(O)C3CC3)c2c1-c1nnc(C(C)(C)C)o1` (single isomer, unassigned) [Example 98a, 3-(5-tert-butyl-1,3,4-oxadiazol-2-yl)-4-(3-cyclopropyl-3-hydroxy-but-1-ynyl)-2,6-dimethyl-1H-pyrrolo[2,3-c]pyridin-7-one] gave a pIC50 (TAF1-BD1) of 6.14 and a pIC50 (TAF1-BD2) of 6.64.
Work on `Cc1[nH]c2c(=O)n(C)cc(C#CC(C)(O)C3CC3)c2c1-c1nnc(C(C)(C)C)o1` (single isomer, unassigned) [Example 98b, 3-(5-tert-butyl-1,3,4-oxadiazol-2-yl)-4-(3-cyclopropyl-3-hydroxy-but-1-ynyl)-2,6-dimethyl-1H-pyrrolo[2,3-c]pyridin-7-one] yielded a pIC50 (TAF1-BD1) of 6.97 and a pIC50 (TAF1-BD2) of 7.47.
For `CCOC(=O)c1c(C)[nH]c2c(=O)n(C)cc(C#CC3(O)CCc4cccnc43)c12` (single isomer, unassigned) [Example 99a, ethyl 4-[2-(7-hydroxy-5,6-dihydrocyclopenta[b]pyridin-7-yl)ethynyl]-2,6-dimethyl-7-oxo-1H-pyrrolo[2,3-c]pyridine-3-carboxylate], the pIC50 (TAF1-BD1) was 5.53 and the pIC50 (TAF1-BD2) was 5.93.
Work on `CCOC(=O)c1c(C)[nH]c2c(=O)n(C)cc(C#CC3(O)CCc4cccnc43)c12` (single isomer, unassigned) [Example 99b, ethyl 4-[2-(7-hydroxy-5,6-dihydrocyclopenta[b]pyridin-7-yl)ethynyl]-2,6-dimethyl-7-oxo-1H-pyrrolo[2,3-c]pyridine-3-carboxylate] yielded a pIC50 (TAF1-BD1) of 6.06 and a pIC50 (TAF1-BD2) of 7.07.
With `CCOC(=O)c1c(C)[nH]c2c(=O)n(C)cc(C#C[C@@H]3CCC[C@H]3O)c12` (stereo in doubt) [Example 83, ethyl 4-[2-(2-hydroxycyclopentyl)ethynyl]-2,6-dimethyl-7-oxo-1H-pyrrolo[2,3-c]pyridine-3-carboxylate] the pIC50 (TAF1-BD1) was 5.59 and the pIC50 (TAF1-BD2) was 6.52.
In the case of `CCOC(=O)c1c(C)[nH]c2c(=O)n(C)cc(C#C[C@@H]3CCCC[C@H]3O)c12` (stereo in doubt) [Example 84, ethyl 4-[2-(2-hydroxycyclohexyl)ethynyl]-2,6-dimethyl-7-oxo-1H-pyrrolo[2,3-c]pyridine-3-carboxylate], the pIC50 (TAF1-BD1) was 5.70 and the pIC50 (TAF1-BD2) was 6.73.
In the case of `CCOC(=O)c1c(C)[nH]c2c(=O)n(C)cc(C#CC(O)(c3cccnc3)C(F)(F)F)c12` (stereo not drawn) [Example 1, ethyl 2,6-dimethyl-7-oxo-4-(4,4,4-trifluoro-3-hydroxy-3-(3-pyridyl)but-1-ynyl)-1H-pyrrolo[2,3-c]pyridine-3-carboxylate], the pIC50 (TAF1-BD1) was 6.51 and the pIC50 (TAF1-BD2) was 7.09.
Compound `CCOC(=O)c1c(C)[nH]c2c(=O)n(C)cc(C#CC(O)(c3cccc(N)c3)C(F)(F)F)c12` (stereo not drawn) [Example 2, ethyl 4-[3-(3-aminophenyl)-4,4,4-trifluoro-3-hydroxy-but-1-ynyl]-2,6-dimethyl-7-oxo-1H-pyrrolo[2,3-c]pyridine-3-carboxylate] has a pIC50 (TAF1-BD1) of 6.60 and a pIC50 (TAF1-BD2) of 7.34.
`CCOC(=O)c1c(C)[nH]c2c(=O)n(C)cc(C#C[C@](C)(O)c3ncccn3)c12` [Example 5, ethyl 4-[(3S)-3-hydroxy-3-pyrimidin-2-yl-but-1-ynyl]-2,6-dimethyl-7-oxo-1H-pyrrolo[2,3-c]pyridine-3-carboxylate] showed a pIC50 (TAF1-BD1) of 5.08 and a pIC50 (TAF1-BD2) of 5.79.
Compound `CCOC(=O)c1c(C)[nH]c2c(=O)n(C)cc(C#C[C@@](C)(O)c3ncccn3)c12` [Example 6, ethyl 4-[(3R)-3-hydroxy-3-pyrimidin-2-yl-but-1-ynyl]-2,6-dimethyl-7-oxo-1H-pyrrolo[2,3-c]pyridine-3-carboxylate] has a pIC50 (TAF1-BD1) of 6.00 and a pIC50 (TAF1-BD2) of 6.83.
For `CCOC(=O)c1c(C)[nH]c2c(=O)n(C)cc(C#CC3(O)CCN(CC)CC3)c12` [Example 8, ethyl 4-[2-(1-ethyl-4-hydroxy-4-piperidyl)ethynyl]-2,6-dimethyl-7-oxo-1H-pyrrolo[2,3-c]pyridine-3-carboxylate], the pIC50 (TAF1-BD1) was 5.11 and the pIC50 (TAF1-BD2) was 6.37.
Compound `CCOC(=O)c1c(C)[nH]c2c(=O)n(C)cc(C#CC3(O)CCN(C)CC3)c12` [Example 9, ethyl 4-[2-(4-hydroxy-1-methyl-4-piperidyl)ethynyl]-2,6-dimethyl-7-oxo-1H-pyrrolo[2,3-c]pyridine-3-carboxylate] has a pIC50 (TAF1-BD1) of 4.84 and a pIC50 (TAF1-BD2) of 6.09.
With `CCOC(=O)c1c(C)[nH]c2c(=O)n(C)cc(C#CC3(O)CCNCC3)c12` [Example 12, ethyl 4-[2-(4-hydroxy-4-piperidyl)ethynyl]-2,6-dimethyl-7-oxo-1H-pyrrolo[2,3-c]pyridine-3-carboxylate] the pIC50 (TAF1-BD1) was 6.12 and the pIC50 (TAF1-BD2) was 6.37.
With `CCOC(=O)c1c(C)[nH]c2c(=O)n(C)cc(C#CC3(C)COC3)c12` [Example 13, ethyl 2,6-dimethyl-4-[2-(3-methyloxetan-3-yl)ethynyl]-7-oxo-1H-pyrrolo[2,3-c]pyridine-3-carboxylate] the pIC50 (TAF1-BD1) was 6.36 and the pIC50 (TAF1-BD2) was 6.42.
For `CCOC(=O)c1c(C)[nH]c2c(=O)n(C)cc(C#CC(C)(C)CO)c12` [Example 15, ethyl 4-(4-hydroxy-3,3-dimethyl-but-1-ynyl)-2,6-dimethyl-7-oxo-1H-pyrrolo[2,3-c]pyridine-3-carboxylate], the pIC50 (TAF1-BD1) was 6.46 and the pIC50 (TAF1-BD2) was 6.72.
